Experimental data: the supplement of paper PMC10307832

Legend:
Assay in all cases: relative viability (nuclei count vs DMSO), 5 days (fraction); higher = more cells survive
Alisertib + Foretinib = compound: COc1cc(Nc2ncc3c(n2)-c2ccc(Cl)cc2C(c2c(F)cccc2OC)=NC3)ccc1C(=O)O [Alisertib] + COc1cc2c(Oc3ccc(NC(=O)C4(C(=O)Nc5ccc(F)cc5)CC4)cc3F)ccnc2cc1OCCCN1CCOCC1 [Foretinib] (partner 0.25 µM)
Summary of the method: (§1)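 One day after seeding in 1536-well plates, lung cancer cell lines were dosed by pin tool. Dosing was either single-drug or a fixed anchor-drug dose plus five library-drug doses (not always all listed) in √10 steps. After 5 days, nuclei were stained in one fix-and-stain step and counted on 4× images, and relative viability is the nuclei count of treated wells over that of vehicle wells, given as the median of duplicate plates.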

Alisertib + Luminespib = compound: COc1cc(Nc2ncc3c(n2)-c2ccc(Cl)cc2C(c2c(F)cccc2OC)=NC3)ccc1C(=O)O [Alisertib] + CCNC(=O)c1noc(-c2cc(C(C)C)c(O)cc2O)c1-c1ccc(CN2CCOCC2)cc1 [Luminespib] (partner 0.01 µM)
Summary of the method: as §1

Alisertib + Tozasertib = compound: COc1cc(Nc2ncc3c(n2)-c2ccc(Cl)cc2C(c2c(F)cccc2OC)=NC3)ccc1C(=O)O [Alisertib] + Cc1cc(Nc2cc(N3CCN(C)CC3)nc(Sc3ccc(NC(=O)C4CC4)cc3)n2)n[nH]1 [Tozasertib] (partner 0.1 µM)
Summary of the method: as §1

Alisertib + AZD7762 = compound: COc1cc(Nc2ncc3c(n2)-c2ccc(Cl)cc2C(c2c(F)cccc2OC)=NC3)ccc1C(=O)O [Alisertib] + NC(=O)Nc1cc(-c2cccc(F)c2)sc1C(=O)N[C@H]1CCCNC1 [AZD7762] (partner 0.2 µM)
Summary of the method: as §1

Cell Line | relative viability (Alisertib + Foretinib; first compound 0.005 µM) | relative viability (Alisertib + Foretinib; first compound 0.01581 µM) | relative viability (Alisertib + Foretinib; first compound 0.05 µM) | relative viability (Alisertib + Foretinib; first compound 0.1581 µM) | relative viability (Alisertib + Foretinib; first compound 0.5 µM) | relative viability (Alisertib + Luminespib; first compound 0.005 µM) | relative viability (Alisertib + Luminespib; first compound 0.01581 µM) | relative viability (Alisertib + Luminespib; first compound 0.05 µM) | relative viability (Alisertib + Luminespib; first compound 0.1581 µM) | relative viability (Alisertib + Luminespib; first compound 0.5 µM) | relative viability (Alisertib + Tozasertib; first compound 0.005 µM) | relative viability (Alisertib + Tozasertib; first compound 0.01581 µM) | relative viability (Alisertib + Tozasertib; first compound 0.05 µM) | relative viability (Alisertib + Tozasertib; first compound 0.1581 µM) | relative viability (Alisertib + Tozasertib; first compound 0.5 µM) | relative viability (Alisertib + AZD7762; first compound 0.005 µM) | relative viability (Alisertib + AZD7762; first compound 0.01581 µM) | relative viability (Alisertib + AZD7762; first compound 0.05 µM) | relative viability (Alisertib + AZD7762; first compound 0.1581 µM) | relative viability (Alisertib + AZD7762; first compound 0.5 µM)
A549 | 0.977 | 0.492 | 0.209 | 0.0402 | 0.0374 |  |  |  |  |  |  |  |  |  |  |  |  |  |  | 
COR-L23 | 0.848 | 0.823 | 0.606 | 0.243 | 0.128 | 0.585 | 0.568 | 0.303 | 0.0956 | 0.0981 | 0.439 | 0.213 | 0.119 | 0.124 | 0.114 |  |  |  |  | 
COR-L 105 | 0.937 | 1.11 | 0.919 | 0.662 | 0.271 | 0.773 | 0.685 | 0.56 | 0.382 | 0.252 | 0.31 | 0.346 | 0.299 | 0.352 | 0.276 |  |  |  |  | 
Calu-6 | 0.855 | 0.599 | 0.228 | 0.155 | 0.137 |  |  |  |  |  |  |  |  |  |  |  |  |  |  | 
EBC-1 | 0.109 | 0.103 | 0.08 | 0.0764 | 0.0821 |  |  |  |  |  |  |  |  |  |  |  |  |  |  | 
HCC-44 |  |  |  |  |  | 0.91 | 0.667 | 0.355 | 0.18 | 0.176 | 0.929 | 0.59 | 0.296 | 0.349 | 0.196 | 0.888 | 0.992 | 0.966 | 0.588 | 0.439
HCC-78 | 0.548 | 0.438 | 0.329 | 0.238 | 0.275 |  |  |  |  |  | 0.446 | 0.273 | 0.281 | 0.245 | 0.211 | 0.544 | 0.569 | 0.363 | 0.23 | 0.28
HCC-366 | 0.975 | 0.156 | 0.035 | 0.054 | 0.055 |  |  |  |  |  | 0.125 | 0.0689 | 0.0539 | 0.0439 | 0.0387 | 0.351 | 0.396 | 0.0718 | 0.0314 | 0.027
IA-LM | 1.11 | 1.09 | 0.737 | 0.214 | 0.0846 |  |  |  |  |  |  |  |  |  |  |  |  |  |  | 
NCI-H520 | 1.15 | 0.644 | 0.486 | 0.266 | 0.322 | 0.237 | 0.202 | 0.197 | 0.209 | 0.193 | 0.372 | 0.418 | 0.376 | 0.409 | 0.357 |  |  |  |  | 
NCI-H661 | 0.995 | 1.04 | 0.813 | 0.423 | 0.369 | 0.94 | 0.875 | 0.611 | 0.377 | 0.296 | 0.342 | 0.377 | 0.386 | 0.406 | 0.39 |  |  |  |  | 
NCI-H1299 | 1.05 | 1.05 | 0.665 | 0.333 | 0.192 |  |  |  |  |  |  |  |  |  |  |  |  |  |  | 
NCI-H1563 | 0.908 | 0.833 | 0.846 | 0.818 | 0.607 | 0.509 | 0.54 | 0.483 | 0.295 | 0.413 |  |  |  |  |  |  |  |  |  | 
NCI-H1648 |  |  |  |  |  |  |  |  |  |  | 0.637 | 0.272 | 0.218 | 0.303 | 0.205 |  | 0.654 | 0.62 | 0.314 | 0.223
NCI-H1650 | 1.19 | 0.873 | 0.653 | 0.23 | 0.231 | 0.19 | 0.194 | 0.171 | 0.196 | 0.177 | 0.46 | 0.394 | 0.2 | 0.246 | 0.202 |  |  |  |  | 
NCI-H1703 | 0.313 | 0.379 | 0.29 | 0.248 | 0.201 |  |  |  |  |  |  |  |  |  |  | 0.119 | 0.134 | 0.115 | 0.0952 | 0.0979
NCI-H1792 |  |  |  |  |  | 0.481 | 0.533 | 0.225 | 0.195 | 0.17 |  |  |  |  |  | 0.571 | 0.343 | 0.135 | 0.0427 | 0.0721
NCI-H2009 | 1.19 | 1.05 | 0.618 | 0.429 | 0.248 | 0.971 | 0.972 | 0.395 | 0.292 | 0.264 | 0.732 | 0.663 | 0.427 | 0.336 | 0.22 |  |  |  |  | 
NCI-H2023 | 0.936 | 0.743 | 0.501 | 0.46 | 0.0916 | 0.807 | 0.671 | 0.321 | 0.127 | 0.0912 | 0.419 | 0.368 | 0.263 | 0.215 | 0.0951 |  |  |  |  | 
NCI-H2228 | 0.734 | 0.642 | 0.493 | 0.0956 | 0.114 | 0.111 | 0.117 | 0.112 | 0.144 | 0.186 | 0.322 | 0.19 | 0.147 | 0.132 | 0.109 |  |  |  |  | 
SK-LU-1 | 0.818 | 0.66 | 0.324 | 0.227 | 0.182 | 0.178 | 0.18 | 0.159 | 0.184 | 0.178 | 0.303 | 0.286 | 0.219 | 0.224 | 0.205 |  |  |  |  | 
SK-MES-1 | 0.779 | 0.928 | 0.74 | 0.233 | 0.189 | 0.723 | 0.4 | 0.273 | 0.144 | 0.17 | 0.819 | 0.705 | 0.429 | 0.207 | 0.135 |  |  |  |  | 
SW 1573 | 0.911 | 0.772 | 0.667 | 0.245 | 0.172 | 0.28 | 0.139 | 0.106 | 0.0766 | 0.102 | 0.135 | 0.153 | 0.132 | 0.147 | 0.158 |  |  |  |  | 
UMC-11 | 0.648 | 0.263 | 0.189 | 0.195 | 0.168 | 0.85 | 0.428 | 0.173 | 0.141 | 0.132 | 0.201 | 0.23 | 0.201 | 0.213 | 0.219 |  |  |  |  | 
